The source of these data is US4599424A, “5-substituted thiadiazole ureas and their use as herbicides” (priority 1979, dated 1986).

In test [1] the test system is Bean (BN). Briefly: Post-emergence herbicide test, bean. The class given is in vivo, Phaseolus vulgaris var. Black Valentine. The settings on record: Phaseolus vulgaris, post-emergence, 336 h, 0.5 lb/acre, two weeks. As to the method: Bean (BN)--Phaseolus vulgaris var. Black Valentine
(§1) All crop and weed species were planted individually in 3" plastic pots containing potting soil. Four seeds each of corn, cotton, and snapbeans were seeded to a depth equal to the diameter of the seed. All other species were surface seeded and sprinkled with screened soil in an amount sufficient to cover the seed. Immediately after planting, all pots were watered by sub-irrigation in greenhouse trays. Pots for the pre-emergence phase were seeded one day before treatment.
(§2) Planting dates for the post-emergence phase were varied so that all seedlings would reach the desired stage of development simultaneously. The proper stage of seedling development for treatment in the post-emergence phase is as follows:
Beans: primary leaves expanded, growing point at primary leaf nodes.
Spray hood constants required to deliver the above volume are as follows:
(§3) Formulations for spray applications were prepared in 50 ml volumes with the following three components:
(§4) Formulations for the 4 lbs/acre rate were prepared by adjusting the amount of active ingredient accordingly.
(§5) Spray applications were made in a hood containing a removable belt and fixed spray nozzle. For passage through the spray hood, one pot of each specie (pre-emergence phase) was placed on the rear half of the flat. Treatments were removed to the greenhouse after spraying. Watering during the observation period was done only by sub-irrigation.
(§6) Two weeks after treatment, pre- and post-emergence injury or control was visually rated, and the results were as shown in the following tables. Pre-emergence data are provided in TABLE III and post-emergence data are provided in TABLE IV, for compounds having the formula illustrated in TABLE I. Correspondingly, pre-emergence and post-emergence data, respectively, are set forth in TABLES V AND VI, for compounds having the formula illustrated in TABLE II.

Test [2] concerns a variety of crops and weed species. Briefly: Pre- and post-emergence herbicide tests, overall assessment of TABLES III-VI. Format: in vivo. The settings on record: from data of TABLES III-VI. As for the experimental part:
as §1, §2
(§7) Compounds were tested at rates of application equivalent to 8 lbs. of actual compound per acre in a spray volume of 38 gallons per acre. Spray hood constants required to deliver the above volume are as follows:
as §6
Typical of such compounds are: 1, 2, 5, 26, 36, and 37.

In test [3] the test system is Corn (CN). Briefly: Post-emergence herbicide test, corn. The settings on record: Zea mays, post-emergence, 336 h, 4 lb/acre, two weeks. Format: in vivo, Zea mays. As for the experimental part: as §1, §2, §7, §3, §4, §5, §6

In the case of `CCSc1nnc(N(C)C(=O)NC)s1` [Example 89], in test [1], the pest or weed control (commonly how far the test organism was held down) at 560.425 g/ha turned out to be 100%.

Take `CCNC(=O)Nc1nnc(C(F)(F)F)s1` [Example 9]: the “herbicidal effectiveness and selectivity (in words)” value in test [2] is reported as “more selective”.

As for `Cc1nnc(NC(=O)N(C)C)s1` [Example 19], in test [2], the “herbicidal effectiveness and selectivity (in words)” value was “converse of this relationship”.

`CCc1nnc(NC(=O)N(C)C)s1` [Example 20]: the “herbicidal effectiveness and selectivity (in words)” value in test [2] is “more selective”.

For the compound `CCN(C(=O)NC)c1nnc(C(F)(F)F)s1` [Example 37], the pest or weed control at 4483.4 g/ha in test [3] is 30%. Besides, in test [2], the “herbicidal effectiveness and selectivity (in words)” value is “extremely effective”.
